Paper PMC5595280, “Cytotoxicity and anti-tumor effects of new ruthenium complexes on triple negative breast cancer cells” (PLoS ONE, 2017)

What was measured:
Format in all cases: cell-based, human
[1] = system: MCF-10A cells; assay: MTT cell proliferation assay; conditions: 24 h of incubation, read-out: IC50 ±SEM MCF-10A
Protocol: (§1) MDA-MB-231 human breast tumor cells and MCF7 human breast tumor cells, obtained from Rio de Janeiro Cell Bank, were maintained at 37°C in 5% CO2 in DMEM medium containing fetal bovine serum (FBS) 10% (Vitrocell). MCF-10A, a non-tumor breast cell line, obtained from Rio de Janeiro Cell Bank, was cultivated in DMEM/F12 medium containing horse serum (HS) 5%, EGF (0.02 mg/mL); hydrocortisone (0.05 mg/mL); cholera toxin (0.001 mg/mL) and insulin (0.01 mg/mL). Both media contained penicillin (100 UI/mL), streptomycin ([…]) and L-glutamine (2 mM).
(§2) Proliferation assays were performed as described earlier. Briefly, cells lines were prepared in a concentration of 1x10^4 cells/100 μL, in complete medium (with 10% FBS), and plated on sterile 96-well plates for 24 h. The culture medium was removed from the wells and a new one, supplemented with 10% FBS and containing different concentrations of (1) [Ru(SO4)(dppb)(bipy)] (2) [Ru(CO3)(dppb)(bipy)], (3), [Ru(C2O4)(dppb)(bipy)], or (4) [Ru(CH3CO2)(dppb)(bipy)]PF6, was added to the wells. Cells were incubated for 24 h under the same conditions as described above. Cell proliferation assay was performed in comparison with untreated control. After incubation, the culture medium of each well was removed and a solution containing MTT (1 mg/mL) was added (100 μL/well). The plates were then kept at 37°C for 4 h and the formed crystals were dissolved in DMSO. The absorbance was read on an ELISA plate reader at a wavelength of 540 nm. […] The selectivity index (SI) was calculated as the ratio IC50 (MCF-10A) / IC50 (MDA-MB-231).
(§3) Each experiment was repeated three times in triplicate and a standard error mean was calculated. Shapiro-Wilk’s test was used to verify data normality. As normal distribution was present, the results were compared statistically with a one-way or two-way analysis of variance (ANOVA). […] The data were analysed and IC50 calculations were made using Hill’s equation in the GraphPad Prism software (version 6.05).

[2] = system: MCF-7 cells; assay: MTT cell proliferation assay; conditions: 24 h of incubation, read-out: IC50 ±SEM MCF-7
Protocol: as §1, §2, §3

[3] = system: MDA-MB-231 cells; assay: MTT cell proliferation assay; conditions: 24 h of incubation, read-out: IC50 ±SEM MDA-MB-231
Protocol: as §1, §2, §3

[4] = system: MCF-10A cells; assay: Cell morphology (inverted microscope); conditions: 50 μM, 24 h
Protocol: (§4) Exponentially growing MDA-MB-231, MCF-7 or MCF-10A cells were harvested, counted and seeded (1x10^5 cells/mL) and plated on sterile 12-well plates for 24 h. Cells were allowed to grow at 37°C in 5% CO2 overnight and then, treated or not (control) with different concentrations of the complexes (1–4) for 2 and 24 h. Cell morphology was examined under an inverted microscope (Nikon, T5100) with amplification of 100×.
(§5) In this work the cytotoxicity of the complexes was evaluated against the MDA-MB-231, MCF-7 and MCF-10A cells by morphology, clonogenic and MTT assays (Fig 2, Table 1). To investigate the effects on cell morphology, the complexes were incubated with cells at concentrations of 25 and 50 μM for 24 h.

[5] = system: MDA-MB-231 cells; assay: Cell morphology (inverted microscope); conditions: MDA-MB-231, 50 μM, 24 h
Protocol: as §4, §5

[6] = system: MDA-MB-231 cells; assay: Wound healing migration assay; conditions: 5, 10 and 20 μM, 24 and 48 h
Protocol: The effects of complex (4) on tumor cell migration was investigated by two methods, wound healing and transwell assays using Boyden chambers. For wound healing, MDA-MB-231 cells (2 x10^5/mL) were plated in 12-wells plates and incubated properly until the culture reached 100% of confluence. Afterwards, a straight scratch was made with a sterile pipette tip and cells were washed with culture medium to remove unbound cells and debris. Cells were incubated with complex (4) 5, 10 and 20 μM for 24 and 48 h. Cells were viewed using an inverted microscope (Nikon, T5100) at 40× total magnification and images were captured (Moticam, 1000-S camera) at 0 h, 24 h and 48 h. Closure area of migrating cells was measured using Image J software, and the percentage of wound closure was calculated, comparing time zero and 48 h, using a formula from Yue and co-workers.
% wound closure=(At=0h−At=Δh)/(At=0h)x (100)

[7] = system: MMP-9; assay: Gelatin zymography of wound healing supernatants; conditions: 24 h
Protocol: MDA-MB-231 cells (1.0 x 10^5/well) were seeded into 12-wells culture plates and cultured in a medium containing FBS 10% to near confluence (80%) of the cell monolayer. Monolayers were carefully wounded using a pipette tip, and any cellular debris present was removed by washing with PBS. The wounded monolayers were then incubated in serum-free medium containing 2.5, 5, 10 and 20 μM of complex (4) for 24 h. After this time, supernatants of the wound healing assay were collected and tested for MMP secretion as previously described. Briefly, equal amounts of total protein ([…]) were subjected to electrophoresis. Zymography gels consisted of 10% polyacrylamide impregnated with gelatin at a final concentration of 1% in the presence of sodium dodecyl sulfate (SDS) under non-reducing conditions. […] Gels were then stained with coomassie brilliant blue for 30 min and destained in methanol and acetic acid for 20 min. Gelatin degrading enzymes were visualized as clear white bands against a blue background, indicating proteolysis of the substrate protein. The molecular mass of gelatinolytic activities was determined by comparison to reference protein molecular mass marker PageRuler Prestained Protein Ladder (Thermo Fisher Scientific). Activity bands were identified following the previous description according to their molecular weights.

[8] = system: MDA-MB-231 cells; assay: DAPI staining for nuclear fragmentation; conditions: 60 and 70 μM, 3 h
Protocol: The apoptotic activity of the complex (4) was analyzed by DAPI staining and flow cytometry with PE-Annexin-V Apoptosis Detection Kit (BD Biosciences). For DAPI staining, MDA-MB-231 cells (2.0 x 10^4/100 μL) were seeded in 96-wells plates and maintained at 37°C in a humidified incubator with 5% CO2 for 24 h. In the next day, cells were treated with 60 and 70 μM of complex (4) and incubated for 3 h. Next, cells were washed with PBS, fixed with methanol and stained with DAPI 1 μg/mL (Life Technologies, Carlsbad, CA) in DMEM medium without FBS for 10 min. Fluorescence was captured in automated microscope ImageXpress® Micro XLS System (Molecular Devices).

CC(=O)[O-].F[P-](F)(F)(F)(F)F.[Ru+2].c1ccc(-c2ccccn2)nc1.c1ccc(P(CCCCP(c2ccccc2)c2ccccc2)c2ccccc2)cc1 [Complex (4), [Ru(CH3CO2)(dppb)(bipy)]PF6]
IC50 [1]: 48.89 ± 0.09 µM | IC50 [2]: > 200 µM | IC50 [3]: 31.16 ± 0.04 µM | effect on cell morphology / cell density [4]: profoundly altered their morphology | effect on cell morphology [5]: profoundly altered their morphology | effect on cell migration (wound healing) [6]: inhibited MDA-MB-231 cell migration in a concentration dependent fashion | inhibition of expression of MMP-9 compared to untreated control ([7]; 20 μM): 60% | effect on expression of MMP-9 ([7]; 2.5, 5 and 10 μM): did not inhibit the expression of MMP-9 | apoptotic nuclei (DAPI) [8]: more apoptotic nucleic
